The text below walks through data of article PMC6930638, “The Masked Polar Group Incorporation (MPGI) Strategy in Drug Design: Effects of Nitrogen Substitutions on Combretastatin and Isocombretastatin Tubulin Inhibitors” (Molecules, 2019).

The test system of series [1] is rat primary pancreatic cells. The series is described as follows: Toxicity against rat primary pancreatic cells (MTT). To be noted: 7 h. Here is the method:
The toxicity of the compounds against rat primary pancreatic cells was evaluated by the MTT protocol (Table 2). […] Sodium taurocholate (NaTc) was also used at high concentrations as a model of acute pancreatitis in vitro.
Rat primary pancreatic cells were isolated as previously described. Afterwards, pancreatic cells were resuspended in Na-HEPES solution (pH 7.4) containing 14 mM glucose, 1% essential amino acid mixture, 1% (w/v) BSA, 0.01% (w/v) STI, 0.5 mM CaCl2 and incubated (5% CO2, at 37 °C) for 7 h in the absence (non-treated control) or the presence of compounds at different concentrations. After the treatment, cells were incubated (5% CO2, at 37 °C) with 0.5 mg/mL MTT for 2 h and the formazan crystals were solubilized with DMSO (v/v). The optical density was read at 570 nm with a reference wavelength of 630 nm. Non-treated cell viability was set as 100%.

For series [2], the system named is Bovine brain microtubule protein (MTP). Details: method as in PMID 26092446. To be noted: comparison values in text; read-out: TPI IC50; cited from earlier work.
Series [3] has as its system MCF-7 breast adenocarcinoma. The series is described as follows: MTT cell antiproliferative assay, MCF-7. The class given is cell-based. To be noted: Homo sapiens, MCF7, 72 h. Background: Formazan colour is commonly taken as a measure of viable cells.
Series [4] has as its system HeLa cervix epithelioid carcinoma. The series is described as follows: MTT cell antiproliferative assay, HeLa. The class given is cell-based. To be noted: Homo sapiens, 72 h.
For series [5], the system named is HT-29 colon adenocarcinoma. The series is described as follows: MTT cell antiproliferative assay, HT-29 (without or with verapamil). The class given is cell-based, human. To be noted: for pIC50: Homo sapiens, HT-29, MTT, 72 h; for improvement of HT-29 IC50 after verapamil treatment: 10 µM verapamil. Here is the method:
The in vitro antiproliferative activity of the synthesized compounds was evaluated by a colorimetric reaction, using the MTT reagent. They were tested against three different human tumor cell lines: HeLa cervix epithelioid carcinoma, HT-29 colon adenocarcinoma, and MCF-7 breast adenocarcinoma. […] Moving the alkylamino substituent from a para to a meta position with respect to the bridge results in potency reduction, except for the phenstatin analogue 1f. However, the introduction of a nitrogen atom to form 2-dimethylaminopyridine derivatives entails a loss of activity, both for phenstatin analogues (1b, 2b), while for isocombretastatins, it only involves a 2–3 times potency decrease (3b). For combretastatins, it implies an improvement in the cytotoxicity values down to tenths of nanomolar (8b). […] On the other hand, the best 2-dimethylaminopyridine was combretastatin 8b. All ammonium salts derivatives were not cytotoxic at micromolar concentrations.
As observed in Table 1, there are no significant changes in the IC50 values for most compounds, except for combretastatins 8a and 8i.
Acquired resistance to antitumor drugs is one of the more important problems of chemotherapy, also affecting tubulin-targeting drugs. In order to ascertain the impact of multidrug resistance phenotypes on the action of the compounds, we have measured the cell proliferation inhibitory activity of HT-29 cells in the presence of verapamil, a known P-glycoprotein 1/multidrug resistance protein 1 (MDR1) inhibitor at a concentration of 10 µM, not affecting cell proliferation. […] Except for the combretastatin analogues 8a and 8i, the affected drugs are all pyridine drugs.
HeLa (human cervical carcinoma) and MCF-7 (human breast carcinoma) cell lines were cultured in Dulbecco’s Modified Eagles Medium (DMEM) supplemented with 2 mM L-glutamine (Lonza-Cambrex, Karlskoga, Sweden), 10% (v/v) heat inactivated fetal bovine serum (HIFBS) (Lonza-Cambrex) and 100 μg/mL streptomycin-100 IU/mL penicillin (Lonza-Cambrex) at 37 °C in humidified 95% air and 5% CO2. HT-29 (human colon carcinoma) cells were cultured at 37 °C in complete RPMI 1640 medium containing 2 mM L-glutamine, 10% (v/v) HIFBS and 100 μg/mL streptomycin-100 IU/mL penicillin in humidified 95% air and 5% CO2 atmosphere.
The effect of the different compounds on the proliferation of human cell lines was determined by using the MTT (3-[4,5-dimethylthiazol-2-yl]-2,5-diphenyltetrazolium bromide) reagent (MTT Thiazolyl Blue Tetrazolium Bromide, Sigma-Aldrich, St. Louis, MO, USA) dissolved in PBS 5 mg/mL. Cell viability was evaluated seeding 100 µL of cells in exponential growth phase with appropriate cell line concentration (1.5 × 10^4 HeLa and MCF-7 cells/mL and 3 × 10^4 HT-29 cells/mL) in complete medium in 96-well plates at 37 °C and 5% CO2. After 24 h incubation to allow cells to attach to the plates the ligands were added at different concentrations from 10^−5 to 10^−9 M. The effect on the proliferation was evaluated 72 h post-treatment by adding the MTT reagent (10 µL/well) to a final concentration of 0.5 mg/mL and the plate was further incubated for another 3 h. After this period, the supernatant was removed, the MTT violet crystals formed on the bottom of each well were dissolved in DMSO (100 µL/well) and subsequently, the absorbance of the color complex was read at 570 nm using a multi-well plate reader. Compounds were dissolved in dimethyl sulfoxide (DMSO) and the final solvent concentrations never exceeded 0.5% (v/v). The control wells included treated cells with 0.5% (v/v) DMSO and the positive control. Measurements were performed in triplicate, and each experiment was repeated three times. […] Nonlinear curves fitting the experimental data were carried out for each compound.

Series [6] relates to HeLa, HT-29 and MCF-7 human tumor cell lines. Description: Antiproliferative activity over the three human tumor cell lines (MTT). The class given is cell-based. Conditions: Homo sapiens, range over the cell lines, Table S1; read-out: Cytotoxicity range (range of antiproliferative IC50 values).
Series [7] can be described thus: Aqueous solubility determination (shake flask, UV). The class given is physicochemical. To be noted: phosphate buffer, pH 7, aqueous buffer, thermodynamic from solid, phosphate buffer pH 7.0, 48 h stirring, filtered, UV; read-out: Solub. Here is the method:
One of the expected effects of introducing nitrogen substitutions on combretastatin and isocombretastatin analogues, is an increase in aqueous solubility. Solubility was spectrophotometrically determined in phosphate buffer at pH 7. UV absorbance of soluble compounds was measured after shaking and microfiltration. […] In addition, aqueous solubilities of the corresponding ammonium salts are over 1 mg/mL.
This great improvement is probably due to the symmetry reduction, combined with an increased polarity for 2g.
Compounds were stirred in a solution of phosphate buffer at pH 7.0 (1–2 mg of compound in 300 µL of buffer) during 48 h. After that, the samples were filtered over a […] filter to discard the insoluble residues. In order to determine the maximum wavelength of absorbance for each compound, a scan between 270 and 400 nm was performed. Once the wavelength was selected, a calibration line was performed and the concentration of the stirred and filtered samples was measured.

In series [8] the test system is Bovine brain microtubule protein (MTP). Description: Tubulin polymerization inhibition assay (turbidimetry). The class given is biochemical. Conditions: 1.5 mg/mL MTP; IC50 calculated only if more than 50% inhibition at 20 µM; read-out: TPI IC50.

pIC50: −log10 of the molar value. Values after ≈ are worked out from the molar mass of the structure shown. Read-outs that look alike come from different tables or passages of the source.

`CC(=O)O[C@H]1C[C@H](O[C@H]2[C@@H](O)C[C@H](O[C@H]3[C@@H](O)C[C@H](O[C@H]4CC[C@@]5(C)[C@H](CC[C@@H]6[C@@H]5C[C@@H](O)[C@]5(C)[C@@H](C7=CC(=O)OC7)CC[C@]65O)C4)O[C@@H]3C)O[C@@H]2C)O[C@H](C)[C@H]1O` [Acetyldigoxin, acetyl-digoxin, reference compound]: in series [1] (0.05 µM), the “live cells with respect to the non-treated control (means ± S.E.M.)” value is listed as 84.41 ± 9.64%.

As usually defined, the pIC50 is −log10 of the IC50, conventionally taken in molar units. `COc1ccc(/C=C\c2cc(OC)c(OC)c(OC)c2)cc1O` [CA-4, Combretastatin A4, reference compound]: the pIC50 in series [2] was 5.40 to 6.00.

As to `COc1cc(C(=O)c2ccnc(N(C)C)c2)cc(OC)c1OC` [Compound 1g, (2-(Dimethylamino)pyridin-4-yl)(3,4,5-trimethoxyphenyl)methanone], the pIC50 in series [3] was 6.65; in series [4], 6.41; in series [5], 6.50; in series [6] it was 6.41 to 6.65; in series [8], less than 4.70. The solubility at 48 h in series [7] amounted to 33.8 µg/mL (≈ 107 µM).

As for `C=C(c1ccnc(N2CCCC2)c1)c1cc(OC)c(OC)c(OC)c1` [Compound 3h, 2-(Pyrrolidin-1-yl)-4-(1-(3,4,5-trimethoxyphenyl)vinyl)pyridine], the pIC50 is 6.50 in series [3]; 6.59 in series [4]; 6.32 in series [5]; 6.32 to 6.64 in series [6]; less than 4.70 in series [8]. Besides, the “improvement of HT-29 IC50 after verapamil treatment” value in series [5] is more than 2 fold. Moreover, the solubility at 48 h in series [7] stood at 62 µg/mL (≈ 182 µM).

`COc1cc(C=Cc2ccc(N(C)C)cc2)cc(OC)c1OC` [Compound 8a, N,N-dimethyl-4-(3,4,5-trimethoxystyryl)aniline]: the pIC50 in series [3] was 6.56; in series [4], 6.68; in series [5], 6.30; in series [2], 5.47; in series [6], 6.30 to 6.99; in series [8], 5.47. Besides, in series [5], the “improvement of HT-29 IC50 after verapamil treatment” value is more than 2 fold.

With `COc1cc([C@@H]2c3cc4c(cc3[C@@H](O[C@@H]3O[C@@H]5CO[C@@H](C)O[C@H]5[C@H](O)[C@H]3O)[C@H]3COC(=O)[C@H]23)OCO4)cc(OC)c1O` [Etoposide, etoposide, reference compound], in series [1] (rat, 0.05 µM, pH 7.4), the “live cells with respect to the non-treated control (means ± S.E.M.)” value was 89.87 ± 11.80%.

For the compound `C[C@H](CCC(=O)NCCS(=O)(=O)O)[C@H]1CC[C@H]2[C@@H]3[C@H](O)C[C@@H]4C[C@H](O)CC[C@]4(C)[C@H]3C[C@H](O)[C@]12C` [NaTc, Sodium taurocholate, reference compound], the “live cells with respect to the non-treated control (means ± S.E.M.)” value in series [1] (0.50%) is given as 24.83 ± 11.86%.
